Earlier results as cited in patent publication US20070190094A1, “PESTICIDAL COMPOSITIONS CONTAINING ISOPROPYL-CONTAINING COMPOUNDS AS PESTICIDALLY ACTIVE INGREDIENTS” (ECOSMART TECHNOLOGIES, INC., priority 2006, published 2007).

How the values were obtained:
[1] = chronic toxicity studies; increased liver weights even at the lowest doses
[2] = U.S. Environmental Protection Agency classification
[3] = animal studies; treatments as low as
[4] = system: hepatic microsomal oxidase enzymes; conditions: in vivo

In the case of `CCCCOCCOCCOCc1cc2c(cc1CCC)OCO2` [PBO, piperonyl butoxide], the “lowest dose at which increased liver weights were shown” value [1] is listed as 30 mg/kg/day, the EPA carcinogen class [2] is listed as “class C possible human carcinogen” and the “treatment level at which hepatocellular carcinomas were shown” value [3] is listed as 1.2%. The “effect on hepatic microsomal oxidase enzymes” value [4] was “inhibit hepatic microsomal oxidase enzymes”.
